One test has as its system panelists. Nature of the test: sweet enhancement taste tests (paired comparison, panelists choose the sweeter sample). In kind it is in vivo, human. As to conditions: for HFCS and sucrose sweet enhancement effect: taste tests, pH 2.8, concentration far below its sweetness threshold. As to the method: Test samples containing either a sweetener (sucrose or high-fructose corn syrup (HFCS)) alone or in combination with a test compound were presented in pairs to a group of panelists who were asked to determine which of the samples was sweeter. Subjects refrained from eating or drinking (except water) for at least 1 hour prior to the test. Subjects rinsed with water several times to clean the mouth. The samples within a paired comparison test were presented in a randomized, counterbalanced order. Panelists had up to a 1 minute delay between taste tests to clear the mouth of any tastes. Binomial probability tables were used to determine the probability of the correct number of responses occurring for each test at alpha-0.05.

The target in test [1] is T1, hT1R2/T1R3 taste receptor (Homo sapiens, UniProt Q7RTX0+Q8TE23).
T1 sequence (Q8TE23 20-839): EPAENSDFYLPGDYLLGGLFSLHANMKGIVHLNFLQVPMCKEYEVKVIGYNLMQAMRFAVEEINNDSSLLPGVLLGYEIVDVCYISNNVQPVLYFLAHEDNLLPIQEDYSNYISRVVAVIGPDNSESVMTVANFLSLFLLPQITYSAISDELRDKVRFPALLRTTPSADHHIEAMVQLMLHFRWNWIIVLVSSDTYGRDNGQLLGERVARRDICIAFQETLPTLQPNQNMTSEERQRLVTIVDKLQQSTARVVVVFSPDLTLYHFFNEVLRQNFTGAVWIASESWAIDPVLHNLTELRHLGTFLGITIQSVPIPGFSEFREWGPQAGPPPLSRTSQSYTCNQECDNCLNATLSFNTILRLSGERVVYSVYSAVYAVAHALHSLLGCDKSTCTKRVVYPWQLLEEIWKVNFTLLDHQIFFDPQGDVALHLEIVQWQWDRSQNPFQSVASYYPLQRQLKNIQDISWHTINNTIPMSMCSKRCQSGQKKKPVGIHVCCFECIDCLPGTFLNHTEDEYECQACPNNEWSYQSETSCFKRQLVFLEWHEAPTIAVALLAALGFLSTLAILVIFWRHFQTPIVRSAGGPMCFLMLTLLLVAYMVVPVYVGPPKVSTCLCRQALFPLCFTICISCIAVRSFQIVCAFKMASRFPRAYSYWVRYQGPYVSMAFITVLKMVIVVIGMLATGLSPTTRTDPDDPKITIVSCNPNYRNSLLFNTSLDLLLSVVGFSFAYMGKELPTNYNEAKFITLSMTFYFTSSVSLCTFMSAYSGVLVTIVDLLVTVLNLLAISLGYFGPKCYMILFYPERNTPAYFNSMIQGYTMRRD
T1 sequence (Q7RTX0 21-852): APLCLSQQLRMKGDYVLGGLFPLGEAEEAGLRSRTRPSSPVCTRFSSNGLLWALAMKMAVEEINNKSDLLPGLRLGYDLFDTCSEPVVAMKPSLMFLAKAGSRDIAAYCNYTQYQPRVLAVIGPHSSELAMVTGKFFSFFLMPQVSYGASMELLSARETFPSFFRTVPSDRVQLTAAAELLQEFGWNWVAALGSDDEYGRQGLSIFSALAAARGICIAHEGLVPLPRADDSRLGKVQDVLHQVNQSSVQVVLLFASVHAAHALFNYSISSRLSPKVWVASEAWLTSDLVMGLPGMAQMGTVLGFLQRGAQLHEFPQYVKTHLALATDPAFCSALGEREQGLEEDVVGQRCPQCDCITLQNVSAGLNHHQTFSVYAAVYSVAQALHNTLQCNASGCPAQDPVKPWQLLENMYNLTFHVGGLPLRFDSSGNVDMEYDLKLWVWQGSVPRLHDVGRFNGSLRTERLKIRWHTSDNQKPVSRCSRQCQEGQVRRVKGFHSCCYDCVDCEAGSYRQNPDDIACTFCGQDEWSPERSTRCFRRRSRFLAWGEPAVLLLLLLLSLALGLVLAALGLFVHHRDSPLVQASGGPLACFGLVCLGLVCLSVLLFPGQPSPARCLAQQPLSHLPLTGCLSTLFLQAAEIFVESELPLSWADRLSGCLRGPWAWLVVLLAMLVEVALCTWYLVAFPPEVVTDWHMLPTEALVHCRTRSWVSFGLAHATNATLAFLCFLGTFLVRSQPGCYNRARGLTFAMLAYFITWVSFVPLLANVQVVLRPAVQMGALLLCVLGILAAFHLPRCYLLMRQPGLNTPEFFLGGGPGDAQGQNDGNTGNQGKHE
Nature of the test: agonist activity against the hT1R2/T1R3 taste receptor (sweet receptor based assay). To be noted: agonist activity, hT1R2/T1R3; read-out: Sweet EC50. In kind it is cell-based. As to the method: Compounds described in this application show moderate to potent agonist effect on the sweet receptor based assay. Potencies (EC50 values, e.g. see Tables 1-3) for agonist activity were measured against the hT1R2/T1R3 taste receptor. FIG. 1 exemplifies the data generated during the screening to determine EC50 values.

Where [2] appears, read: Study 1: 10 ppm Compound 78 vs 1.5% Sucrose, pH 2.8.
Setting [3] is: Study 2: 7 ppm Compound 78 + 6% sucrose vs 8% Sucrose.

As usually defined, the EC50 is the concentration that produces a half-maximal response. As to `COCc1cccc(C2CCN(C(COC)C(=O)NCC(C)C)CC2)c1F` (stereo not drawn) [Compound 78, 2-(4-(2-fluoro-3-(methoxymethyl)phenyl)piperidin-1-yl)-N-isobutyl-3-methoxypropanamide], the results for the “Results (which of the samples was sweeter)” value in the test with panelists (setting [2]), with panelists (setting [3]) and in the test on panelists (Study 3: 9 ppm Compound 78 + 6% HFCS vs 8% HFCS) were 9, 21 and 22, respectively. The “HFCS and sucrose sweet enhancement effect” value in the test with panelists was “remarkable HFCS and Sucrose sweet enhancement effect”; in the test on panelists (listed as compound 78), “significant enhancement”. The “sweetness compared with 1.5% sucrose” value in the test with panelists (test #1, 10 ppm, pH 2.8) is given as “significantly less sweet”. Besides, the “sweetness compared with 8% sucrose” value in the test on panelists (test #2, 10 ppm of compound 78+6% sucrose) is “no significant difference in sweetness”. Also, in test [1], the EC50 was determined as 1.3 µM.

`OC[C@H]1O[C@@](CO)(O[C@H]2O[C@H](CO)[C@@H](O)[C@H](O)[C@H]2O)[C@@H](O)[C@@H]1O` [Sucrose, sucrose, reference compound]: the “Results (which of the samples was sweeter)” value was 42 in the test with panelists (setting [2]) and 24 in the test with panelists (setting [3]).

`CC(C)CNC(=O)C(C)(C)N1CCC(C)(c2ccccc2)CC1` [Compound 118]: the EC50 in test [1] is 3.7 µM.

As for `Cc1cccc(C2CCN(C(C)(C)C(=O)NCC(C)C)CC2)n1` [Compound 109], the EC50 in test [1] amounted to 5.1 µM.

Turning to `Cc1cccc(N2CCN(C(C)(C)C(=O)NC3CC3)CC2)c1C` [Compound 1, N-cyclopropyl-2-(4-(2,3-dimethylphenyl)piperazin-1-yl)-2-methylpropanamide], the EC50 in test [1] worked out at 4.3 µM.

Turning to `COCc1ccc(C2=CCN(C(C)(C)C(=O)NCC(C)C)CC2)c(F)c1` [Compound 69], the EC50 in test [1] is more than 10 µM.

In the case of `CC(C)(C(=O)NC1CC1)N1CCC(c2ccccc2)CC1` [Compound 82], the EC50 in test [1] was found to be 10.4 µM.

With `Cc1cccc(C2=CCN(C(C)(C)C(=O)NCC(C)C)CC2)c1F` [Compound 65], the EC50 in test [1] worked out at 2.9 µM.

As for `CC(C)CNC(=O)C(C)(C)N1CC=C(c2cccc(F)c2F)CC1` [Compound 59], the half-maximal effective concentration (EC50) in test [1] was 1.7 µM.

As for `Cc1ccccc1C1CCN(C(C)(C)C(=O)NCC(C)C)CC1` [Compound 92], in test [1], the EC50 worked out at 1.6 µM.

(Values after patent US20250280861A1, “SWEETENER COMPOSITIONS” (Firmenich Incorporated, priority 2022, published 2025).)
